Test results published in US8481732B2 (Incyte Corporation, priority 2009, dated 2013).

Biological target: T1, histamine H4 receptor (Homo sapiens, UniProt Q9H3N8)
T1 construct: expressed in transfected cells; host or cells: HEK293SFM cells (membrane preparation)
Test: H4 Membrane Binding Assay (3H-Histamine displacement)
Details: membranes of recombinant HEK293SFM cells, 10 nM 3H-Histamine, 1.5 hr at room temperature
Description: Recombinant HEK293SFM cells expressing human H1, H2, H3, H4 or mouse H4 were harvested (Packard Filtermate Harvester) in ice-cold Tris-HCl, (50 mM, pH 7.5, Sigma) with protease inhibitors (Roche) and homogenized with a Polytron homogenizer. The homogenate was centrifuged for 5 minutes at 1000 g to remove nuclei and unbroken cells. The supernatant was centrifuged at 50000 g for 30 minutes, and the resulting pellet was re-suspended in ice-cold Tris-HCl (50 mM, pH 7.5). […] Nonspecific binding was determined by inclusion of 1000× unlabeled ligands. The bound radioactivity was separated by filtration through polyethyleneimine-treated GF/B filters (Perkin Elmer). The filters were washed eight times with ice-cold Tris-HCl (50 mM, pH 7.5), and radioactivity retained on the filters was measured by liquid scintillation counting. The binding data were evaluated with Prism.

Structure (SMILES) | IC50
CCOC(=O)[C@@H]1CCCC[C@@H]1NC(=O)N1CCc2ccc(-c3cc(N4CCN(C)CC4)nc(N)n3)cc2C1 (relative stereo) [Example 53, Ethyl cis-2-({[7-[2-amino-6-(4-methylpiperazin-1-yl)pyrimidin-4-yl]-3,4-dihydroisoquinolin-2(1H)-yl]carbonyl}amino)cyclohexanecarboxylate] | 107 nM
CO[C@H]1CCCC[C@H]1NC(=O)N1CCc2ccc(-c3cc(N4CCN(C)CC4)nc(N)n3)cc2C1 (relative stereo) [Example 55, 7-[2-Amino-6-(4-methylpiperazin-1-yl)pyrimidin-4-yl]-N-(cis-2-methoxycyclohexyl)-3,4-dihydroisoquinoline-2(1H)-carboxamide] | 120 nM
CCO[C@H]1CCCC[C@H]1NC(=O)N1CCc2ccc(-c3cc(N4CCN(C)CC4)nc(N)n3)cc2C1 (relative stereo) [Example 85, 7-[2-Amino-6-(4-methylpiperazin-1-yl)pyrimidin-4-yl]-N-[(cis)-2-ethoxycyclohexyl]-3,4-dihydroisoquinoline-2(1H)-carboxamide] | 57 nM
CN1CCN(c2cc(-c3ccc4c(c3)CN(C(=O)N[C@@H]3CCCC[C@@H]3OCC3CC3)CC4)nc(N)n2)CC1 (relative stereo) [Example 86] | 49 nM
CN1CCN(c2nc(N)nc3cc(C(=O)NC(Cc4ccc5c(c4)OC(F)(F)O5)C(=O)N(C)C)ccc23)CC1 (single isomer, unassigned) [Example 145A] | 519 nM
CN1CCN(c2nc(N)nc3cc(C(=O)NC(Cc4ccc5c(c4)OC(F)(F)O5)C(=O)N(C)C)ccc23)CC1 (single isomer, unassigned) [Example 145B, 2-Amino-N-(3-(2,2-difluorobenzo[d][1,3]dioxol-5-yl)-1-(dimethylamino)-1-oxopropan-2-yl)-4-(4-methylpiperazin-1-yl)quinazoline-7-carboxamide] | 26 nM
CN1CCN(c2cc(-c3ccc4c(c3)CNCC4)nc(N)n2)CC1 [Example 1, 4-(4-Methylpiperazin-1-yl)-6-(1,2,3,4-tetrahydroisoquinolin-7-yl)pyrimidin-2-amine] | 198 nM
CN1CCN(c2cc(-c3ccc4c(c3)CN(c3ccc(C#N)c(F)c3)CC4)nc(N)n2)CC1 [Example 15, 4-{7-[2-Amino-6-(4-methylpiperazin-1-yl)pyrimidin-4-yl]-3,4-dihydroisoquinolin-2(1H)-yl}-2-fluorobenzonitrile] | 39 nM
CN1CCN(c2cc(-c3ccc4c(c3)CN(c3ccc(-c5ccc(C#N)cc5)cn3)CC4)nc(N)n2)CC1 [Example 18, 4-{6-[7-[2-Amino-6-(4-methylpiperazin-1-yl)pyrimidin-4-yl]-3,4-dihydroisoquinolin-2(1H)-yl]pyridin-3-yl}benzonitrile] | 34 nM
CNC(=O)c1ccc(-c2ccc(N3CCc4ccc(-c5cc(N6CCN(C)CC6)nc(N)n5)cc4C3)nc2)cc1 [Example 19, 4-{6-[7-[2-Amino-6-(4-methylpiperazin-1-yl)pyrimidin-4-yl]-3,4-dihydroisoquinolin-2(1H)-yl]pyridin-3-yl}-N-methylbenzamide] | 508 nM
C[C@@H](NC(=O)c1ccc2c(N3CCN(C)CC3)nc(N)nc2c1)c1ccc2ccccc2c1 [Example 21, (R)-2-Amino-4-(4-methylpiperazin-1-yl)-N-[1-(naphthalen-2-yl)ethyl]quinazoline-7-carboxamide] | 105 nM
C[C@H](NC(=O)c1ccc2c(N3CCN(C)CC3)nc(N)nc2c1)c1ccc2ccccc2c1 [Example 22, (S)-2-Amino-4-(4-methylpiperazin-1-yl)-N-(1-(naphthalen-2-yl)ethyl)quinazoline-7-carboxamide] | 128 nM
CN1CCN(c2nc(N)nc3cc(C(=O)NC(C)(C)c4ccccc4)ccc23)CC1 [Example 23, 2-Amino-N-(1-methyl-1-phenylethyl)-4-(4-methylpiperazin-1-yl)quinazoline-7-carboxamide] | 384 nM
CC(NC(=O)c1ccc2c(N3CCN(C)CC3)nc(N)nc2c1)c1ccccc1 (centres unmarked) [Example 24, 2-Amino-4-(4-methylpiperazin-1-yl)-N-(1-phenylethyl)quinazoline-7-carboxamide] | 565 nM

Second part, the compound after the results:

IC50 | Structure (SMILES)
47 nM | CN1CCN(c2cc(-c3ccc4c(c3)CN(C(=O)N[C@H]3C[C@@H]3c3ccccc3)CC4)nc(N)n2)CC1 (relative stereo) [Example 49, 7-[2-Amino-6-(4-methylpiperazin-1-yl)pyrimidin-4-yl]-N-(trans-2-phenylcyclopropyl)-3,4-dihydroisoquinoline-2(1H)-carboxamide]
497 nM | CN1CCN(c2cc(-c3ccc4c(c3)CN(C(=O)NC(Cc3ccccc3)C(=O)N(C)C)CC4)nc(N)n2)CC1 (stereo in doubt) [Example 60, 7-[2-Amino-6-(4-methylpiperazin-1-yl)pyrimidin-4-yl]-N-[(1R)-1-benzyl-2-(dimethylamino)-2-oxoethyl]-3,4-dihydroisoquinoline-2(1H)-carboxamide]
172 nM | CN1CCN(c2cc(-c3ccc4c(c3)CN(C(=O)c3ccc(Cl)cc3)CC4)nc(N)n2)CC1 [Example 2, 4-[2-(4-Chlorobenzoyl)-1,2,3,4-tetrahydroisoquinolin-7-yl]-6-(4-methylpiperazin-1-yl)pyrimidin-2-amine]
170 nM | CN1CCN(c2cc(-c3ccc4c(c3)CN(C(=O)C3CCC3)CC4)nc(N)n2)CC1 [Example 3, 4-[2-(Cyclobutylcarbonyl)-1,2,3,4-tetrahydroisoquinolin-7-yl]-6-(4-methylpiperazin-1-yl)pyrimidin-2-amine]
267 nM | CN1CCN(c2cc(-c3ccc4c(c3)CN(S(=O)(=O)c3ccccc3)CC4)nc(N)n2)CC1 [Example 4, 4-(4-Methylpiperazin-1-yl)-6-[2-(phenylsulfonyl)-1,2,3,4-tetrahydroisoquinolin-7-yl]pyrimidin-2-amine]
20.8 nM | CN1CCN(c2cc(-c3ccc4c(c3)CN(C(=O)NC3CCCC3)CC4)nc(N)n2)CC1 [Example 5, 7-[2-Amino-6-(4-methylpiperazin-1-yl)pyrimidin-4-yl]-N-cyclopentyl-3,4-dihydroisoquinoline-2(1H)-carboxamide]
37.8 nM | CN1CCN(c2cc(-c3ccc4c(c3)CN(C(=O)Cc3ccccc3)CC4)nc(N)n2)CC1 [Example 6, 4-(4-Methylpiperazin-1-yl)-6-[2-(phenylacetyl)-1,2,3,4-tetrahydroisoquinolin-7-yl]pyrimidin-2-amine]
43.3 nM | CN1CCN(c2cc(-c3ccc4c(c3)CN(C(=O)OC3CCCC3)CC4)nc(N)n2)CC1 [Example 7, Cyclopentyl 7-[2-amino-6-(4-methylpiperazin-1-yl)pyrimidin-4-yl]-3,4-dihydroisoquinoline-2(1H)-carboxylate]
13.2 nM | CN1CCN(c2cc(-c3ccc4c(c3)CN(C(=O)Nc3ccc(Cl)cc3)CC4)nc(N)n2)CC1 [Example 8, 7-[2-Amino-6-(4-methylpiperazin-1-yl)pyrimidin-4-yl]-N-(4-chlorophenyl)-3,4-dihydroisoquinoline-2(1H)-carboxamide]
301 nM | CN1CCN(c2cc(-c3ccc4c(c3)CN(C(=O)N3CCCC3)CC4)nc(N)n2)CC1 [Example 9, 4-(4-Methylpiperazin-1-yl)-6-[2-(pyrrolidin-1-ylcarbonyl)-1,2,3,4-tetrahydroisoquinolin-7-yl]pyrimidin-2-amine]
53.4 nM | CC(C)COC(=O)N1CCc2ccc(-c3cc(N4CCN(C)CC4)nc(N)n3)cc2C1 [Example 10, Isobutyl 7-[2-amino-6-(4-methylpiperazin-1-yl)pyrimidin-4-yl]-3,4-dihydroisoquinoline-2(1H)-carboxylate]
43 nM | CC(C)OC(=O)N1CCc2ccc(-c3cc(N4CCN(C)CC4)nc(N)n3)cc2C1 [Example 11, Isopropyl 7-[2-amino-6-(4-methylpiperazin-1-yl)pyrimidin-4-yl]-3,4-dihydroisoquinoline-2(1H)-carboxylate]
23.4 nM | CN1CCN(c2cc(-c3ccc4c(c3)CN(C(=O)Nc3ccccc3)CC4)nc(N)n2)CC1 [Example 12, 7-[2-Amino-6-(4-methylpiperazin-1-yl)pyrimidin-4-yl]-N-phenyl-3,4-dihydroisoquinoline-2(1H)-carboxamide]
57.2 nM | CC(C)NC(=O)N1CCc2ccc(-c3cc(N4CCN(C)CC4)nc(N)n3)cc2C1 [Example 13, 7-[2-Amino-6-(4-methylpiperazin-1-yl)pyrimidin-4-yl]-N-isopropyl-3,4-dihydroisoquinoline-2(1H)-carboxamide]
23.1 nM | CN1CCN(c2cc(-c3ccc4c(c3)CN(c3ccc(C#N)cc3)CC4)nc(N)n2)CC1 [Example 14, 4-{7-[2-Amino-6-(4-methylpiperazin-1-yl)pyrimidin-4-yl]-3,4-dihydroisoquinolin-2(1H)-yl}benzonitrile]
48 nM | CN1CCN(c2cc(-c3ccc4c(c3)CN(c3ccc(C#N)cn3)CC4)nc(N)n2)CC1 [Example 16, 6-{7-[2-Amino-6-(4-methylpiperazin-1-yl)pyrimidin-4-yl]-3,4-dihydroisoquinolin-2(1H)-yl}nicotinonitrile]
199 nM | CNC(=O)c1ccc(N2CCc3ccc(-c4cc(N5CCN(C)CC5)nc(N)n4)cc3C2)cn1 [Example 17, 5-{7-[2-Amino-6-(4-methylpiperazin-1-yl)pyrimidin-4-yl]-3,4-dihydroisoquinolin-2(1H)-yl}-N-methylpyridine-2-carboxamide]
19.6 nM | CN1CCN(c2cc(-c3ccc4c(c3)CN(C(=O)Nc3cccc(Cl)c3)CC4)nc(N)n2)CC1 [Example 20, 7-[2-Amino-6-(4-methylpiperazin-1-yl)pyrimidin-4-yl]-N-(3-chlorophenyl)-3,4-dihydroisoquinoline-2(1H)-carboxamide]
